{
  "source": "patent US8883746B2",
  "about": "“α-galactosylceramide derivatives, pharmaceutically acceptable salts thereof, preparation method and pharmaceutical composition for the immune adjuvant containing the same as an active ingredient” (SNU R&DB Foundation, priority 2006, dated 2014)",
  "key": {"[1]": {"system": "DN32.D3 NKT hybridoma cells", "assay": "Stimulatory activity for NKT hybridoma cells (IL-2 secretion, ELISA)", "format": "cell-based, mouse", "conditions": "for IL-2 production compared to α-GalCer: mouse CD1d-bearing RBL cells loaded 4 hrs, co-incubated with DN32.D3 for 16 hrs, FIG. 1; for Stimulatory effect (IL-2) compared to α-GalCer: low concentration (32 ng/mL)", "experimental": "Determination of Stimulatory Activity for NKT Hybridoma Cell (Zhou et al., Science, 306:1786-1789, 2004)\nMouse CD1d-bearing rat basophilic leukemia (RBL) cells were incubated with various concentrations of α-GalCer or the α-GalCer derivatives prepared in Examples for 4 hrs. After removing free glycolipids by washing with PBS (phosphate-buffer saline) three times, RBL cells were incubated with DN32.D3 NKT hybridoma cells for 16 hrs. IL-2 secretion levels in the supernatant were determined through ELISA (Enzyme-Linked Immunosorbent Assay)."}, "[2]": {"system": "Splenocytes from naïve C57BL/6 mice", "assay": "Cytokine levels (IFN-γ, IL-4) produced by mouse splenocytes, ELISA", "format": "cell-based", "conditions": "72 hrs; for IL-4 secretion compared to α-GalCer: high concentrations (125 ng/ml), FIG. 3(a); for IL-4 production compared with α-GalCer: FIG. 3(b) (2 ng/ml)", "experimental": "Evaluation of Cytokine Levels Produced by Mouse Splenocyte\nSplenocytes from naïve C57BL/6 mice were incubated with various concentrations of α-GalCer or α-GalCer derivatives for 72 hrs. IFN-γ and IL-4 secretion levels in the supernatant were determined through ELISA."}, "[3]": {"system": "NKT cells", "conditions": "literature (Goff et al., 2004); cited from earlier work"}, "[4]": {"system": "naïve C57BL/6 mice", "assay": "IFN-γ and IL-4 production level in vivo (serum, ELISA)", "conditions": "1 μg/mouse intravenously", "experimental": "Examination of IFN-γ and IL-4 Production Level In Vivo\nα-GalCer or the α-GalCer derivatives (1 μg/mouse) were intravenously injected into naïve C57BL/6 mice. The serum concentrations of IFN-γ and IL-4 at each time point were determined through ELISA."}},
  "data": [
    {"smiles": "CCCCCCCCCCCCCC[C@@H](O)[C@@H](O)[C@H](CO[C@H]1OC(CO)[C@H](O)[C@H](O)[C@H]1O)n1cc(CCCCCC)nn1", "note": "(stereo partly drawn) [Example 1, (2S,3R,4S,5R)-2-((2S,3S,4R)-2-(4-hexyl-1H-1,2,3-triazol-1-yl)-3,4-dihydroxyoctadecyloxy)-6-(hydroxymethyl)-tetrahydro-2H-pyrane-3,4,5-triol]", "values": [
      {"measurement": "IL-2 production compared to α-GalCer", "setting": "[1]", "result": "ineffective"}
    ]},
    {"smiles": "CCCCCCCCCCCCCC[C@@H](O)[C@@H](O)[C@H](CO[C@H]1OC(CO)[C@H](O)[C@H](O)[C@H]1O)n1cc(CCCCCCC)nn1", "note": "(stereo partly drawn) [Example 2, (2S,3R,4S,5R)-2-((2S,3S,4R)-2-(4-heptyl-1H-1,2,3-triazol-1-yl)-3,4-dihydroxyoctadecyloxy)-6-(hydroxymethyl)-tetrahydro-2H-pyrane-3,4,5-triol]", "values": [
      {"measurement": "IL-2 production compared to α-GalCer", "setting": "[1]", "result": "ineffective"},
      {"measurement": "IL-4 secretion compared to α-GalCer", "setting": "[2]", "result": "equivalent or greater IL-4 secretion than did α-GalCer"}
    ]},
    {"smiles": "CCCCCCCCCCCCCCCCc1cn([C@@H](CO[C@H]2OC(CO)[C@H](O)[C@H](O)[C@H]2O)[C@H](O)[C@H](O)CCCCCCCCCCCCCC)nn1", "note": "(stereo partly drawn) [Example 3, (2S,3R,4S,5R)-2-((2S,3S,4R)-2-(4-hexadecyl-1H-1,2,3-triazol-1-yl)-3,4-dihydroxyoctadecyloxy)-6-(hydroxymethyl)-tetrahydro-2H-pyrane-3,4,5-triol]", "values": [
      {"measurement": "IL-2 production compared to α-GalCer", "setting": "[1]", "result": "not active in practice"},
      {"measurement": "melting point", "result": "162 to 164", "unit": "°C"}
    ]},
    {"smiles": "CCCCCCCCCCCCCCCCCCCCCCCc1cn([C@@H](CO[C@H]2OC(CO)[C@H](O)[C@H](O)[C@H]2O)[C@H](O)[C@H](O)CCCCCCCCCCCCCC)nn1", "note": "(stereo partly drawn) [Example 4, (2S,3R,4S,5R)-2-((2S,3S,4R)-3,4-dihydroxy-2-(4-tricosyl-1H-1,2,3-triazol-1-yl)octadecyloxy)-6-(hydroxymethyl)-tetranydro-2H-pyrane-3,4,5-triol]", "values": [
      {"measurement": "IL-4 secretion compared to α-GalCer", "setting": "[2]", "result": "equivalent or greater IL-4 secretion than did α-GalCer"}
    ]},
    {"smiles": "CCCCCCCCCCCCCCCCCCCCCCCCc1cn([C@@H](CO[C@H]2OC(CO)[C@H](O)[C@H](O)[C@H]2O)[C@H](O)[C@H](O)CCCCCCCCCCCCCC)nn1", "note": "(stereo partly drawn) [Example 5, (2S,3R,4S,5R)-2-((2S,3S,4R)-3,4-dihydroxy-2-(4-tetracosyl-1H-1,2,3-triazol-1-yl)octadecyloxy)-6-(hydroxymethyl)-tetrahydro-2H-pyrane-3,4,5-triol]", "values": [
      {"measurement": "Stimulatory effect (IL-2) compared to α-GalCer", "setting": "[1]", "result": "comparable stimulatory effects to α-GalCer"},
      {"measurement": "IL-4 secretion compared to α-GalCer", "setting": "[2]", "result": "equivalent or greater IL-4 secretion than did α-GalCer"},
      {"measurement": "melting point", "result": "167 to 169", "unit": "°C"}
    ]},
    {"smiles": "CCCCCCCCCCCCCCCCCCCCCCCCCc1cn([C@@H](CO[C@H]2OC(CO)[C@H](O)[C@H](O)[C@H]2O)[C@H](O)[C@H](O)CCCCCCCCCCCCCC)nn1", "note": "(stereo partly drawn) [Example 6, (2S,3R,4S,5R)-2-((2S,3S,4R)-3,4-dihydroxy-2-(4-pentacosyl-1H-1,2,3-triazol-1-yl)octadecyloxy)-6-(hydroxymethyl)-tetrahydro-2H-pyrane-3,4,5-triol]", "values": [
      {"measurement": "melting point", "result": "165 to 167", "unit": "°C"}
    ]},
    {"smiles": "CCCCCCCCCCCCCC[C@@H](O)[C@@H](O)[C@H](CO[C@H]1OC(CO)[C@H](O)[C@H](O)[C@H]1O)n1cc(CCCCCCc2ccccc2)nn1", "note": "(stereo partly drawn) [Example 7, (2S,3R,4S,5R)-2-((2S,3S,4R)-3,4-dihydroxy-2-(4-(6-phenylhexyl)-1H-1,2,3-triazol-1-yl)octadecyloxy)-6-(hydroxymethyl)-tetrahydro-2H-pyrane-3,4,5-triol]", "values": [
      {"measurement": "IL-2 production compared to α-GalCer", "setting": "[1]", "result": "ineffective"}
    ]},
    {"smiles": "CCCCCCCCCCCCCC[C@@H](O)[C@@H](O)[C@H](CO[C@H]1OC(CO)[C@H](O)[C@H](O)[C@H]1O)n1cc(CCCCCCCc2ccccc2)nn1", "note": "(stereo partly drawn) [Example 8, (2S,3R,4S,5R)-2-((2S,3S,4R)-3,4-dihydroxy-2-(4-(7-phenylheptyl)-1H-1,2,3-triazol-1-yl)octadecyloxy)-6-(hydroxymethyl)-tetrahydro-2H-pyrane-3,4,5-triol]", "values": [
      {"measurement": "IL-2 production compared to α-GalCer", "setting": "[1]", "result": "ineffective"}
    ]},
    {"smiles": "CCCCCCCCCCCCCC[C@@H](O)[C@@H](O)[C@H](CO[C@H]1OC(CO)[C@H](O)[C@H](O)[C@H]1O)n1cc(CCCCCCCCc2ccccc2)nn1", "note": "(stereo partly drawn) [Example 9, (2S,3R,4S,5R)-2-((2S,3S,4R)-3,4-dihydroxy-2-(4-(8-phenyloctyl)-1H-1,2,3-triazol-1-yl)octadecyloxy)-6-(hydroxymethyl)-tetrahydro-2H-pyrane-3,4,5-triol]", "values": [
      {"measurement": "IL-2 production compared to α-GalCer", "setting": "[1]", "result": "ineffective"}
    ]},
    {"smiles": "CCCCCCCCCCCCCC[C@@H](O)[C@@H](O)[C@H](CO[C@H]1OC(CO)[C@H](O)[C@H](O)[C@H]1O)NC(=O)CCCCCCCCCCCN", "note": "(stereo partly drawn) [Example 11, 12-amino-N-((2S,3S,4R)-3,4-dihydroxy-1-((2S,3R,4S,5R)-3,4,5-trihydroxy-6-(hydroxymethyl)-tetrahydro-2H-pyran-2-yloxy)octadecan-2-yl)dodecanamide]", "values": [
      {"measurement": "Stimulatory effect (IL-2) compared to α-GalCer", "setting": "[1]", "result": "comparable stimulatory effects to α-GalCer"},
      {"measurement": "IL-4 production compared with α-GalCer", "setting": "[2]", "result": "more IL-4 production compared with α-GalCer"}
    ]},
    {"smiles": "CCCCCCCCCCCCCC[C@@H](O)[C@@H](O)[C@H](CO[C@H]1OC(CO)[C@H](O)[C@H](O)[C@H]1O)NC(=O)CCCCCCCCCCO", "note": "(stereo partly drawn) [Example 12, N-((2S,3S,4R)-3,4-dihydroxy-1-((2S,3R,4S,5R)-3,4,5-trihydroxy-6-(hydroxymethyl)-tetrahydro-2H-pyran-2-yloxy)octadecan-2-yl)-11-hydroxyundecanamide]", "values": [
      {"measurement": "Stimulatory effect (IL-2) compared to α-GalCer", "setting": "[1]", "result": "comparable stimulatory effects to α-GalCer"}
    ]},
    {"smiles": "CCCCCCCCCCCCCC[C@@H](O)[C@@H](O)[C@H](CO[C@H]1OC(CO)[C@H](O)[C@H](O)[C@H]1O)NC(=O)CCCCCCCCCCCO", "note": "(stereo partly drawn) [Example 13, N-((2S,3S,4R)-3,4-dihydroxy-1-((2S,3R,4S,5R)-3,4,5-trihydroxy-6-(hydroxymethyl)-tetrahydro-2H-pyran-2-yloxy)octadecan-2-yl)-12-hydroxydodecanamide]", "values": [
      {"measurement": "IL-4 production compared with α-GalCer", "setting": "[2]", "result": "more IL-4 production compared with α-GalCer"}
    ]},
    {"smiles": "CCCCCCCCCCCCCC[C@@H](O)[C@@H](O)[C@H](CO[C@H]1OC(CO)[C@H](O)[C@H](O)[C@H]1O)NC(=O)CCCCCCCCCCN(CCCCCCC)CCCCCCC", "note": "(stereo partly drawn) [Example 16, 11-(diheptylamino)-N-((2S,3S,4R)-3,4-dihydroxy-1-((2S,3R,4S,5R)-3,4,5-trihydroxy-6-(hydroxymethyl)-tetrahydro-2H-pyran-2-yloxy)octadecan-2-yl)undecanamide]", "values": [
      {"measurement": "Stimulatory effect (IL-2) compared to α-GalCer", "setting": "[1]", "result": "comparable stimulatory effects to α-GalCer"},
      {"measurement": "IL-4 production compared with α-GalCer", "setting": "[2]", "result": "more IL-4 production compared with α-GalCer"}
    ]},
    {"smiles": "CCCCCCCCCCCCCC[C@@H](O)[C@@H](O)[C@H](CO[C@H]1O[C@H](CO)[C@H](O)[C@H](O)[C@H]1O)NC(=O)CCCCCCC", "note": "[PBS-25]", "values": [
      {"measurement": "Secretion of Th2-cytokines compared to α-GalCer", "setting": "[3]", "result": "greater amount of Th2-cytokines, compared to α-GalCer"}
    ]},
    {"smiles": "CCCCCCCCCCCCCCCCCCCCCCCCCC(=O)N[C@@H](CO[C@H]1O[C@H](CO)[C@H](O)[C@H](O)[C@H]1O)[C@H](O)[C@H](O)CCCCCCCCCCCCCC", "note": "[α-GalCer, α-Galactosylceramide]", "values": [
      {"measurement": "Time of peak of serum IFN-γ levels after administration", "setting": "[4]", "result": 12, "unit": "h"},
      {"measurement": "Time of rapid increase of serum IL-4 levels after administration", "setting": "[4]", "result": "≤ 2", "unit": "h"}
    ]}
  ]
}
